Source: patent US20130096088A1, “Inhibitors of Protein Tyrosine Kinase Activity” (METHYLGENE INC., priority 2011, published 2013)

Legend:
[1] = biological target: T1, VEGFR2 (KDR) (Homo sapiens, UniProt P35968); assay: In vitro receptor tyrosine kinase assay (VEGF receptor KDR), DELFIA; assay type: biochemical; conditions: recombinant GST-VEGFR2 806-1356, ATP 0.6 uM; read-out: VEGFR IC50UM
T1 construct: made in house; host or cells: Sf9 cells (Spodoptera frugiperda), baculovirus
Description: In Vitro Receptor Tyrosine Kinase Assay (VEGF Receptor KDR)
This test measures the ability of compounds to inhibit the enzymatic activity of recombinant human VEGF receptor enzymatic activity.
A 1.6-kb cDNA corresponding to the catalytic domain of VEGFR2 (KDR) (Genbank accession number AF035121 amino acid 806 to 1356) is cloned into the Pst I site of the pDEST20 Gateway vector (Invitrogen) for the production of a GST-tagged version of that enzyme. This construct is used to generate recombinant baculovirus using the Bac-to-Bac™ system according to the manufacturer's instructions (Invitrogen).
The GST-VEGFR2806-1356 protein is expressed in Sf9 cells (Spodoptera frugiperda) upon infection with recombinant baculovirus construct. Briefly, Sf9 cells grown in suspension and maintained in serum-free medium (Sf900 II supplemented with gentamycin) at a cell density of about 2×10^6 cells/ml are infected with the above-mentioned viruses at a multiplicity of infection (MOI) of 0.1 during 72 hours at 27° C. with agitation at 120 rpm on a rotary shaker. Infected cells are harvested by centrifugation at 398 g for 15 min. Cell pellets are frozen at −80° C. until purification is performed.
All steps described in cell extraction and purification are performed at 4° C. Frozen Sf9 cell pellets infected with the GST-VEGFR2806-1356 recombinant baculovirus are thawed and gently resuspended in Buffer A (PBS pH 7.3 supplemented with 1 μg/ml pepstatin, 2 μg/ml Aprotinin and leupeptin, 50 μg/ml PMSF, 50 μg/ml TLCK and 10 μM E64 and 0.5 mM DTT) using 3 ml of buffer per gram of cells. Suspension is Dounce homogenized and 1% Triton X-100 is added to the homogenate after which it is centrifuged at 22500 g, 30 min., 4° C. The supernatant (cell extract) is used as starting material for purification of GST-VEGFR2806-1356.
The supernatant is loaded onto a GST-agarose column (Sigma) equilibrated with PBS pH 7.3. Following a four column volume (CV) wash with PBS pH 7.3+1% Triton X-100 and 4 CV wash with buffer B (50 mM Tris pH 8.0, 20% glycerol and 100 mM NaCl), bound proteins are step eluted with 5 CV of buffer B supplemented with 5 mM DTT and 15 mM glutathion. GST-VEGFR2806-1356 enriched fractions from this chromatography step are pooled based on U.V. trace i.e. fractions with high O.D.280. Final GST-VEGFR2806-1356 protein preparations concentrations are about 0.7 mg/ml with purity approximating 70%. Purified GST-VEGFR2806-1356 protein stocks are aliquoted and frozen at −80° C. prior to use in enzymatic assay.
Inhibition of VEGFR/KDR is measured in a DELFIA™ assay (Perkin Elmer). The substrate poly(Glu4,Tyr) is immobilized onto black high-binding polystyrene 96-well plates. The coated plates are washed and stored at 4° C. During the assay, the enzyme is pre-incubated with inhibitor and Mg-ATP on ice in polypropylene 96-well plates for 4 minutes, and then transferred to the coated plates. The subsequent kinase reaction takes place at 30° C. for 10-30 minutes. ATP concentrations in the assay are 0.6 uM for VEGFR/KDR (2× the Km). Enzyme concentration is 5 nM. After incubation, the kinase reactions are quenched with EDTA and the plates are washed. Phosphorylated product is detected by incubation with Europium-labeled anti-phosphotyrosine MoAb. After washing the plates, bound MoAb is detected by time-resolved fluorescence in a Gemini SpectraMax reader (Molecular Devices). Compounds are evaluated over a range of concentrations, and IC50 values (concentration of compounds giving 50% inhibition of enzymatic activity) are determined.

[2] = system: laser-induced choroidal neovascularization (CNV); assay: In vivo choroidal neovascularization (CNV) model; design: species or system rat; conditions: Rattus norvegicus, 240 h; Brown-Norway rats, dose 3 nmol/eye, injection on Day 3, CNV area on Day 10; read-out: Inhibition of CNV Progression (%)
Description: In Vivo Choroidal Neovascularization (CNV) Model This test measures the capacity of compounds to inhibit CNV progression. CNV is the main cause of severe vision loss in patients suffering from age-related macular degeneration (AMD). Male Brown-Norway rats (Charles River Japan Co., Ltd.) were used in these studies. Rats were anesthetized by intraperitoneal injection of pentobarbital, and the right pupil was dilated with 0.5% tropicamide and 0.5% phenylephrine hydrochloride. The right eye received 6 laser burns between retinal vessels using a slit lamp delivery system of Green laser Photocoagulator (Nidex Inc., Japan), and microscope slide glass with 10 mg/mL hyaluronic acid (SIGMA) used as a contact lens. The laser power was 200 mW for 0.1 second and spot diameter was 100 μm. At the time of laser burn, bubble production was observed; which is an indication of rupture of Bruch's membrane which is important for CNV generation. After animals were anesthetized, and the right pupil dilated (as mentioned above), the right eye of the animal received the compound or vehicle by an injection (3 μL/eye) at doses of 3 or 10 nmol/eye on Day 3. The compounds were dissolved or suspended in CBS, PBS, or other adequate vehicles before injection. On Day 10, the animals were anesthetized with ether, and high molecular weight fluorescein isothiocyanate (FITC)-dextran (SIGMA, 2×10^6 MW) was injected via a tail vein (20 mg/rat). About 30 min after FITC-dextran injection, animals were euthanized by ether or carbon dioxide, and the eyes were removed and fixed with 10% formaline neutral buffer solution. After over 1 hour of fixation, RPE-choroid-sclera flat mounts were obtained by removing cornea, lens and retina from the eyeballs. The flat mounts were mounted in 50% glycerol on a microscope slide, and the portion burned by laser was photographed using a fluorescence microscope (Nikon Corporation, excitation filter: 465-495 nm, absorption filter: 515-555 nm). The CNV area was obtained by measurement of hyper-fluorescence area observed on the photograph using Scion image. The average CNV area of 6 burns was used as an individual value of CNV area, and the average CNV area of compound treated group was compared with that of the vehicle-treated group.

T1 sequence (P35968 806-1356): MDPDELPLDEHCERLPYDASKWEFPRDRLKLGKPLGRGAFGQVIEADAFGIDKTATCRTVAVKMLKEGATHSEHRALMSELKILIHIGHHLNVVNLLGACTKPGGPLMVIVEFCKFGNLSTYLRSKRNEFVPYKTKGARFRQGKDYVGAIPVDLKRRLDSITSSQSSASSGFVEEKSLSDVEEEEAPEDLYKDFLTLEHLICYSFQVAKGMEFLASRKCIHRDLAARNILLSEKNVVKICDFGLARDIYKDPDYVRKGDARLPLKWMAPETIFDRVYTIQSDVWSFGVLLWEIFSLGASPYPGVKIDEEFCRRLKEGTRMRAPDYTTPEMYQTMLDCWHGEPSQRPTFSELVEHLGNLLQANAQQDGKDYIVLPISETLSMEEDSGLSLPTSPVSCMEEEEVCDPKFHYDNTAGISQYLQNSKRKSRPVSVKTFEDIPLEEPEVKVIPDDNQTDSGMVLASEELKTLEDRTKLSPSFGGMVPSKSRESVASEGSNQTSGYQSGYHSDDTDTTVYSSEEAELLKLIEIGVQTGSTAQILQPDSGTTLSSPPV

SMILES | IC50 [1] [nM] | inhibition in vivo at 3 nmol/eye [2] [%]
CC(C)[C@H](N)C(=O)N[C@H](C(=O)OCC(=O)N1CCN(Cc2ccc(-c3cc4nccc(Oc5ccc(NC(=O)NC6CC6)cc5F)c4s3)nc2)CC1)C(C)C [Compound 12, (S)-2-(4-((6-(7-(4-(3-Cyclopropylureido)-2-fluorophenoxy)thieno[3,2-b]pyridin-2-yl)pyridin-3-yl)methyl)piperazin-1-yl)-2-oxoethyl 2-((S)-2-amino-3-methylbutanamido)-3-methylbutanoate] | 13 | 47
CC(C)[C@H](NC(=O)CN)C(=O)OCC(=O)N1CCN(Cc2ccc(-c3cc4nccc(Oc5ccc(NC(=O)NC6CC6)cc5F)c4s3)nc2)CC1 [Compound 13] | 10 | 41.6
COCCOCCOCCOCCC(=O)OCC(=O)N1CCN(Cc2ccc(-c3cc4nccc(Oc5ccc(NC(=O)NC6CC6)cc5F)c4s3)nc2)CC1 [Compound 18] | 6 | 42.9
CCNC(=O)N(CCOCCOCCOCCOC)C1CCN(Cc2ccc(-c3cc4nccc(Oc5ccc(NC(=O)NC6CC6)cc5F)c4s3)nc2)CC1 [Compound 23, 1-(4-(2-(5-((4-Ethylaminocarbonyl-(2,5,8,11-tetraoxamidecan-13-ylamino)piperidin-1-yl)methyl)pyridin-2-yl)thieno[3,2-b]pyridin-7-yloxy)-3-fluorophenyl)-3-cyclopropylurea] | 18 | 44.2
COCCOCCOCCOCCN(C(=O)CO)C1CCN(Cc2ccc(-c3cc4nccc(Oc5ccc(NC(=O)NC6CC6)cc5F)c4s3)nc2)CC1 [Compound 24] | 15 | 28.9
COCCOCCOCCOCCN(C(=O)C(F)(F)F)C1CCN(Cc2ccc(-c3cc4nccc(Oc5ccc(NC(=O)NC6CC6)cc5F)c4s3)nc2)CC1 [Compound 25] | 53 | 20.9
COCCOCCOCCOCCC(=O)N1CCN(Cc2ccc(-c3cc4nccc(Oc5ccc(NC(=O)NC6CC6)cc5F)c4s3)nc2)CC1 [Compound 46, 1-(4-(2-(5-((4-2,5,8,11-Tetraoxatetradecanepiperazin-1-yl)methyl)pyridin-2-yl)thieno[3,2-b]pyridin-7-yloxy)-3-fluorophenyl)-3-cyclopropylurea] | 11 | 24.8
COCCOCCOCCOCCOCCC(=O)N1CCN(Cc2ccc(-c3cc4nccc(Oc5ccc(NC(=O)NC6CC6)cc5F)c4s3)nc2)CC1 [Compound 49] | 8 | 20.9
